{
  "source": "paper PMC10017700",
  "about": "“The SMARCA4^R1157W mutation facilitates chromatin remodeling and confers PRMT1/SMARCA4 inhibitors sensitivity in colorectal cancer” (NPJ Precision Oncology, 2023)",
  "key": {"[1]": {"test_system": "SMARCA4-R1157W mutant HCT116 cell line-derived xenograft", "assay": "CDX mouse model, SMARCA4-R1157W", "assay_type": "in vivo, BALB/c female nude mice", "details": "oral, 14 days", "protocol": "(§1) To establish cell line-derived xenograft (CDX) mouse models, 6-week-old BALB/c female nude mice were obtained from the Model Animal Research Center of Nanjing University (Nanjing, China). All animal experimental procedures were approved by the Animal Ethical and Welfare Committee of Nanjing University. Approximately 5 × 10^6 SMARCA4 wild-type or R1157W mutant HCT116 cells were injected subcutaneously into the right flank of each mouse. The mice were randomized into 4 groups (6 mice/group) when the tumor volume reached approximately 80 mm^3 (volume = 0.52 × length × width^2), at which point drug dosing every day was initiated. GSK-PTi (GSK3368715, HY-128717A, MCE)[32] and BBAi-1 (BRM/BRG1 ATP inhibitor-1, HY-119374, MCE)[33] were dissolved in 10% DMSO, 90% saline (containing 20% SBE-β-CD). GSK-PTi (25 mg/kg) and BBAi-1 (2.5 mg/kg) were administered orally. Body weight and tumor volume of the mice were measured every two days. Treatments were continued for 14 days, after which all mice were euthanized for analysis. Tumor tissues were weighed and prepared for immunoblotting or immunohistochemical staining. Tumor growth inhibition (TGI) rate was measured using the formula: TGI (%) = [1−(Vt−V0 in treated group)/Vt−V0 in vehicle group)]×100 where Vt is the volume on each day and V0 is the volume at the beginning of the treatment."}, "[2]": {"test_system": "SMARCA4-WT HCT116 cell line-derived xenograft", "assay": "CDX mouse model, SMARCA4-WT", "assay_type": "in vivo, BALB/c female nude mice", "details": "oral, 14 days", "protocol": "as §1"}, "[3]": {"test_system": "SMARCA2 and SMARCA4", "details": "SMARCA bromodomain inhibitor; cited from earlier work", "text": "However, SMARCA2, another core subunit of the SWI/SNF complex with ATPase activity, also harbors a highly conserved HELICc domain (Supplementary Fig. 7a). […] It would be interesting to test whether other HELICc domain-containi ..."}, "[4]": {"test_system": "ATP (ATPase activity of SMARCA4)", "assay": "ATPase kinetic assay (ATPase activity assay kit)", "assay_type": "biochemical", "protocol": "An ATPase activity assay kit (#MAK113, Sigma,) was used to measure the Kinetic parameters (Vmax, Km, and Kcat) of SMARCA4 on ATP. In detail, SMARCA4-WT and -R1157W mutant proteins were incubated with saturating amounts of plasmid DNA and various concentrations of ATP. Reaction rates were determined by quantitating the fraction of ATP hydrolyzed at multiple time points. Kinetic parameters were determined by fitting the initial rate data to the Michaelis–Menten equation using the Origin software. All reactions were performed in triplicate."}, "[5]": {"test_system": "mononucleosomes", "assay": "Nucleosome sliding assay", "assay_type": "biochemical", "details": "60 or 90 min, 30 °C, 2 mM ATP, Fig. 4c", "protocol": "The nucleosome sliding assay was performed as previously described with several modifications[41],[47]. A 255 bp DNA template from the Widom 601 positioning sequence[48] was assembled into mononucleosomes by the “salt jump” method in the presence of core histones isolated from HeLa cells. Mononucleomes (100 ng DNA) were incubated with wild-type or mutant SMARCA4 proteins (100 ng) in 40 μl reactions containing 20 mM HEPES–NaOH (pH 7.9), 50 mM MgCl2, 1 mM DTT, 0.1 mM PMSF, 0.1 mg/ml BSA, 3% glycerol, 0.02% NP-40, 0.02% Triton X-100, 2 mM ATP at 30 °C for 0, 30, 60, or 90 min. Reactions were quenched by the addition of 20 mM EDTA and 1% glycerol. Samples were resolved by 6% native polyacrylamide/0.5×TBE gel electrophoresis and visualized by SYBR green staining (Invitrogen)."}, "[6]": {"test_system": "ATP (ATPase activity of SMARCA4)", "assay": "ATPase assay, γ-32P ATP thin-layer chromatography", "assay_type": "biochemical", "details": "in the presence of DNA, TLC, 30 °C, 0-90 min, Fig. 4b", "protocol": "The ATPase assays were performed as described previously with modifications. The 20 μl reactions contained 50 mM Tris (pH 7.5), 50 mM NaCl, 8 mM MgCl2, 0.5 mM PMSF, 2 mM ATP, 2 mM DTT, and 1 μg of a 1 kb DNA fragment. The reaction was initiated by adding 1 μl of 10 mCi/ml [γ-^32P] ATP (3000 Ci/mmole; PerkinElmer) and 1 μg of SMARCA4 wild-type or mutant proteins. The reactions were then incubated at 30 °C for the indicated times (0, 15, 30, 60, and 90 min) and were stopped by the addition of 5 μl of 500 mM EDTA. One microliter of the reaction mixture was spotted onto PEI-cellulose TLC plates (Merck), and chromatography was run in 0.5 M LiCl, 1 M formic acid. The ratio of inorganic phosphate to ATP at each time point was quantified using a Molecular Dynamics Phosphorimager (Amersham Biosciences) and ImageQuant TL software."}, "[7]": {"details": "GSK-PTi 25 mg/kg and/or BBAi-1 2.5 mg/kg, daily, 6 mice/group"}, "[8]": {"details": "saturating plasmid DNA, various ATP concentrations, Michaelis–Menten fit, triplicate, mean ± SD"}, "[9]": {"details": "over 2-fold higher, Supplementary Fig. 5c, d"}},
  "data": [
    {"compound": "CCOCC1(COCC)CCC(c2[nH]ncc2CN(C)CCNC)CC1", "note": "[GSK-PTi]", "values": [
      {"measurement": "tumor growth inhibition (TGI) rate", "setting": "[1]; [7]", "value": 45.3, "unit": "%"},
      {"measurement": "therapeutic effect of daily single treatment (versus SMARCA4-WT CDX)", "setting": "[1]", "value": "better therapeutic effect"},
      {"measurement": "effect in SMARCA4-R1157W mutant versus SMARCA4-WT model mice", "setting": "[1]; daily, comparison of the two model mouse groups", "value": "no statistically significant differences"},
      {"measurement": "tumor growth inhibition (TGI) rate", "setting": "[2]; [7]", "value": 23, "unit": "%"},
      {"measurement": "therapeutic effect of daily single treatment", "setting": "[2]", "value": "moderate therapeutic effect"}
    ]},
    {"compound": "O=C(/C=C/N1C[C@H]2C[C@@H]1CN2c1ccccn1)c1ccccc1O", "note": "[PFI-3]", "values": [
      {"measurement": "differentiation between SMARCA2 and SMARCA4", "setting": "[3]", "value": "could not differentiate between SMARCA2 and SMARCA4"}
    ]},
    {"compound": "SMARCA4-R1157W: R1157W mutant SMARCA4 protein", "values": [
      {"measurement": "Kcat / Km", "setting": "[4]; saturating plasmid DNA, various ATP concentrations", "value": 17.47, "unit": "M⁻¹ s⁻¹"},
      {"measurement": "Kcat", "setting": "[4]; [8]", "value": "0.00242 ± 6.7e-05", "unit": "s⁻¹"},
      {"measurement": "Km", "setting": "[4]; [8]", "value": "138 ± 17.4", "unit": "µM"},
      {"measurement": "Vmax", "setting": "[4]; [8]", "value": "241.6 ± 8.16", "unit": "mM/min/mg"},
      {"measurement": "lateral sliding of centrally positioned nucleosomes compared to SMARCA4-WT", "setting": "[5]", "value": "further catalyzed lateral sliding of centrally positioned nucleosomes"},
      {"measurement": "ATPase activity compared to SMARCA4-WT", "setting": "[6]", "value": "significantly augmented"}
    ]},
    {"compound": "SMARCA4-WT mutant: as printed; probably misprint for SMARCA4-R1157W mutant protein", "values": [
      {"measurement": "Kcat relative to SMARCA4-WT protein", "setting": "[4]; [9]", "value": "over 2 fold"},
      {"measurement": "Vmax relative to SMARCA4-WT protein", "setting": "[4]; [9]", "value": "over 2 fold"}
    ]}
  ]
}
